The source made the active and inactive calls.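 The calls were made as follows: active = compounds that inhibit the LYP-1 phosphatase with IC50 at or below 20 µM; inactive = the rest.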
Biological target: Tyrosine-protein phosphatase non-receptor type 22 (Homo sapiens) (UniProt Q9Y2R2)
Assay: PTPN22 enzyme inhibitors – biochemical, fluorescence, LYP catalytic domain, selectivity assay for LMPTP inhibitor project, dose response (AID 652006)
Details: His-LYP catalytic domain, OMFP fluorescence, 50 min

Tyrosine-protein phosphatase non-receptor type 22 (Homo sapiens), sequence (Q9Y2R2 whole entry, looked up, the tested form may be a part): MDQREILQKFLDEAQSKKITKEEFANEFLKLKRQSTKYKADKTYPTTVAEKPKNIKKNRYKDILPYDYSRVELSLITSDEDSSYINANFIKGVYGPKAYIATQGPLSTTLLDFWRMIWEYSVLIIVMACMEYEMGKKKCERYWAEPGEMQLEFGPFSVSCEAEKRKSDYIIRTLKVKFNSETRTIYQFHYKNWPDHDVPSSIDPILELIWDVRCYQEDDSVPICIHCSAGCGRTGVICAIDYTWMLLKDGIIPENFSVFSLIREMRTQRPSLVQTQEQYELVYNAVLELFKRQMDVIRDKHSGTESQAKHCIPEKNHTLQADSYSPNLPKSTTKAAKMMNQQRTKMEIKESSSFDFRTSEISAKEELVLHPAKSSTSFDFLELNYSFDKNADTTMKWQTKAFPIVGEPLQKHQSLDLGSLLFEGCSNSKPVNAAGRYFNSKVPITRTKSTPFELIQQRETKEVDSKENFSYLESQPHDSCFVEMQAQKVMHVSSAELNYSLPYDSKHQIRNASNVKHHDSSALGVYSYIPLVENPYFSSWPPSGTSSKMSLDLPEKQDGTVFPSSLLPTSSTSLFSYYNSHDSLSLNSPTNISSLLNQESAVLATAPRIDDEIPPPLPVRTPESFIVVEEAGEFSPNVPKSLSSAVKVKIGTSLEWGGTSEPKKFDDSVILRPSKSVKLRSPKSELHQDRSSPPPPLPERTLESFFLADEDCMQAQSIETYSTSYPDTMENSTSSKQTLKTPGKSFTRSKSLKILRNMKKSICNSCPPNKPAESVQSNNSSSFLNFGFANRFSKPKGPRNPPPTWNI

- IC50: > 80 µM (inactive)
SMILES: Clc1cccc(Cl)c1Cn1cnc(=NCc2ccco2)c2[nH]cnc21
